Experimental data published in article PMC3492761 (Journal of medicinal chemistry, 2012).

How the values were obtained:
[1] = tested on: A/Brisbane/10/2007 (H3N2); settings: read-out: EC50, cytopathic effect inhibition
[2] = male (rat, dog), human, microsomes, 1 h
[3] = tested on: A/WSN/33 (H1N1) influenza virus; settings: mouse, in vivo, po

SMILES	EC50 [1] [µM]	other results
CCC(CC)O[C@@H]1C=C(P(=O)(O)O)C[C@H](N)[C@H]1NC(C)=O [3a, tamiphosphor]	> 10	
C[C@]12CC[C@H]3[C@@H](CCC4=CC(=O)CC[C@@]43C)[C@@H]1CC[C@@H]2O [testosterone]		metabolized [2]: 65–100%
CCOP(=O)(O)C1=C[C@@H](OC(CC)CC)[C@H](NC(C)=O)[C@@H](N)C1 [3c, tamiphosphor monoethyl ester]	> 10	
CCC(CC)O[C@@H]1C=C(P(=O)(O)O)C[C@H](NC(=N)N)[C@H]1NC(C)=O [4a, guanidino-tamiphosphor]	> 10	
Cc1ncc2n1-c1ccc(Cl)cc1C(c1ccccc1F)=NC2 [midazolam]		metabolized [2]: 65–100%
CCOP(=O)(OCC)C1=C[C@@H](OC(CC)CC)[C@H](NC(C)=O)[C@@H](N)C1 [3b, tamiphosphor diethyl ester]		protection of infected mice [3]: No significant protection
CCOP(=O)(O)C1=C[C@@H](OC(CC)CC)[C@H](NC(C)=O)[C@@H](NC(=N)N)C1 [4c, guanidino-tamiphosphor monoethyl ester]	> 10	
